Data on 10 compounds can be found in patent US9932356B2, “Pyrazolopyrimidine macrocycles as inhibitors of human immunodeficiency virus replication” (priority 2014, dated 2018).

This experiment has as its system NL-RLuc virus. Kind of experiment: Inhibition of HIV replication (NL-RLuc luciferase reporter virus in MT-2 cells). Conditions: Human immunodeficiency virus 1, MT2, 120 h. Type of experiment: cell-based. An excerpt: Inhibition of HIV replication: A recombinant NL-RLuc proviral clone was constructed in which a section of the nef gene from NL4-3 was replaced with the Renilla Luciferase gene. This virus is fully infectious and can undergo multiple cycles of replication in cell culture. In addition, the luciferous reporter provides a simple and easy method for quantitating the extent of virus growth and consequently, the antiviral activity of test compounds. The plasmid pNLRLuc contains the proviral NL-Rluc DNA cloned into pUC18 at the PvuII site. The NL-RLuc virus was prepared by transfection of 293T cells with the plasmid pNLRLuc. Transfections were performed using the LipofectAMINE PLUS kit from Invitrogen (Carlsbad, Calif.) according to the manufacturer and the virus generated was titered in MT-2 cells. For susceptibility analyses, the titrated virus was used to infect MT-2 cells in the presence of compound, and after 5 days of incubation, cells were processed and quantitated for virus growth by the amount of expressed luciferase. Assay media was RPMI 1640 supplemented with 10% heat inactivated fetal bovine serum (FBS), 100 units/ml penicillin G/100 units/ml streptomycin, 10 mM HEPES buffer pH 7.55 and 2 mM L-glutamine. The results from at least 2 experiments were used to calculate the EC50 values. Luciferase was quantitated using the Dual Luciferase kit from Promega (Madison, Wis.). Susceptibility of viruses to compounds was determined by incubation in the presence of serial dilutions of the compound. The 50% effective concentration (EC50) was calculated by using the exponential form of the median effect equation where (Fa)=1/[1+(ED50/drug conc.)^m] (Johnson V A, Byington R T. Infectivity Assay. In Techniques in HIV Research. ed. Aldovini A, Walker B D. 71-76. New York: Stockton Press. 1990).
In turn, `Cc1nc2cc3nn2c(c1[C@H](OC(C)(C)C)C(=O)O)N1CCC(C)(CC1)OC/C=C/CCc1ccn(n1)-c1cccc-3c1` [Example 1, (2S)-tert-Butoxy[(21E)-4,25-dimethyl-24-oxa-1,5,7,8,15,30-hexaazahexacyclo[23.2.2.1^6,9.1^10,14.1^15,18.0^2,7]dotriaconta-2,4,6(32),8,10(31),11,13,16,18(30),21-decaen-3-yl]acetic acid] yielded an EC50 of 87 nM. This counts as double-digit nanomolar.

In the case of `Cc1cc2n(n1)-c1cccc(c1)-c1cc3nc(C)c([C@H](OC(C)(C)C)C(=O)O)c(n3n1)N1CCC(C)(CCCCCC2)CC1` [Example 5, (2S)-tert-Butoxy[4,17,26-trimethyl-1,5,7,8,15,16-hexaazahexacyclo[24.2.2.1^6,9.1^10,14.0^2,7.0^15,19]dotriaconta-2,4,6(32),8,10(31),11,13,16,18-nonaen-3-yl]acetic acid], the concentration giving a half-maximal response (EC50) was determined as 4 nM.

For the compound `Cc1nc2c(s1)CCCCCC1(C)CCN(CC1)c1c([C@H](OC(C)(C)C)C(=O)O)c(C)nc3cc(nn13)-c1cccc-2c1` [Example 8, (2S)-tert-butoxy[4,17,25-trimethyl-18-thia-1,5,7,8,16-pentaazahexacyclo[23.2.2.1^6,9.1^10,14.0^2,7.0^15,19]hentriaconta-2,4,6(31),8,10(30),11,13,15(19),16-nonaen-3-yl]acetic acid], a half-maximal response (EC50) required 7 nM. `Cc1nc2cc3nn2c(c1[C@H](OC(C)(C)C)C(=O)O)N1CCC(C)(CC1)OCCCCCn1ccc(n1)-c1cccc-3c1` [Example 3, (2S)-tert-Butoxy[4,25-dimethyl-24-oxa-1,5,7,8,18,30-hexaazahexacyclo[23.2.2.1^6,9.1^10,14.1^15,18.0^2,7]dotriaconta-2,4,6(32),8,10(31),11,13,15(30),16-nonaen-3-yl]acetic acid] returned a concentration for a half-maximal effect (EC50) of 26 nM. Regarding `Cc1nc2cc3nn2c(c1[C@H](OC(C)(C)C)C(=O)O)N1CCC(C)(CC1)OCCCCn1ccc(n1)-c1cccc-3c1` [Example 4, (2S)-tert-butoxy[4,24-dimethyl-23-oxa-1,5,7,8,18,29-hexaazahexacyclo[22.2.2.1^6,9.1^10,14.1^15,18.0^2,7]hentriaconta-2,4,6(31),8,10(30),11,13,15(29),16-nonaen-3-yl]acetic acid], the EC50 amounted to 14 nM.

`Cc1nc2cc3nn2c(c1[C@H](OC(C)(C)C)C(=O)O)N1CCC(C)(CC/C=C/CCc2nc(C)c(C)n2-c2cccc-3c2)CC1` [Example 9, (2S)-tert-Butoxy[4,16,17,26-tetramethyl-1,5,7,8,15,18-hexaazahexacyclo[24.2.2.1^6,9.1^10,14.0^2,7.0^15,19]dotriaconta-2,4,6(32),8,10(31),11,13,16,18,22-decaen-3-yl]acetic acid] displayed a concentration giving a half-maximal response (EC50) of 9 nM. The compound `Cc1nc2c(s1)CCCCCCC1(C)CCN(CC1)c1c([C@H](OC(C)(C)C)C(=O)O)c(C)nc3cc(nn13)-c1cccc-2c1` [Example 7, (2S)-tert-Butoxy[4,17,26-trimethyl-18-thia-1,5,7,8,16-pentaazahexacyclo[24.2.2.1^6,9.1^10,14.0^2,7.0^15,19]dotriaconta-2,4,6(32),8,10(31),11,13,15(19),16-nonaen-3-yl]acetic acid] gave a concentration for a half-maximal effect (EC50) of 7 nM. This EC50 and that of the compound before are within 1.5-fold of each other.

For `Cc1nc2cc3nn2c(c1[C@H](OC(C)(C)C)C(=O)O)N1CCC(C)(CCCCCCc2nc(C)c(C)n2-c2cccc-3c2)CC1` [Example 10, (2S)-tert-Butoxy[4,16,17,26-tetramethyl-1,5,7,8,15,18-hexaazahexacyclo[24.2.2.1^6,9.1^10,14.0^2,7.0^15,19]dotriaconta-2,4,6(32),8,10(31),11,13,16,18-nonaen-3-yl]acetic acid], the concentration for a half-maximal effect (EC50) was determined as 7 nM. Take `Cc1nc2cc3nn2c(c1[C@H](OC(C)(C)C)C(=O)O)N1CCC(C)(CC1)OCCCCCc1ccn(n1)-c1cccc-3c1` [Example 2, (2S)-tert-Butoxy[4,25-dimethyl-24-oxa-1,5,7,8,15,30-hexaazahexacyclo[23.2.2.1^6,9.1^10,14.1^15,18.0^2,7]dotriaconta-2,4,6(32),8,10(31),11,13,16,18(30)-nonaen-3-yl]acetic acid]: the EC50 worked out at 49 nM. `Cc1cc2n(n1)-c1cccc(c1)-c1cc3nc(C)c([C@H](OC(C)(C)C)C(=O)O)c(n3n1)N1CCC(C)(CCCCC2)CC1` [Example 6, (2S)-tert-butoxy[4,17,25-trimethyl-1,5,7,8,15,16-hexaazahexacyclo[23.2.2.1^6,9.1^10,14.0^2,7.0^15,19]hentriaconta-2,4,6(31),8,10(30),11,13,16,18-nonaen-3-yl]acetic acid] showed a half-maximal effective concentration (EC50) of 7 nM.
